Values quoted from earlier work as cited in publication PMC2840068 (Vision research, 2009).

B1: ranibizumab: anti-VEGF antibody (ranibizumab) (antibody, chains of the INN, looked up, V domains shown)
VH: EVQLVESGGGLVQPGGSLRLSCAASGYDFTHYGMNWVRQAPGKGLEWVGWINTYTGEPTYAADFKRRFTFSLDTSKSTAYLQMNSLRAEDTAVYYCAKYPYYYGTSHWYFDVWGQGTLVTVSS
VL: DIQLTQSPSSLSASVGDRVTITCSASQDISNYLNWYQQKPGKAPKVLIYFTSSLHSGVPSRFSGSGSGTDFTLTISSLQPEDFATYYCQQYSTVPWTFGQGTKVEIK

Legend:
[1] = system: VEGF; details: clinical trials in AMD patients; ref Gragoudas et al., 2004
[2] = system: VEGF; details: ref Chang et al., 2007, Rosenfeld et al., 2006

Molecule | therapeutic dose response [1] | AMD patients’ vision [2]
pegaptanib | inverse therapeutic dose response | 
B1 |  | improvement of AMD patients’ vision
